The record followed here is patent US20220204497A1, “NOVEL COMPOUND HAVING ANTICANCER ACTIVITY, AND METHOD FOR PRODUCING SAME” (MEDICINAL BIOCONVERGENCE RESEARCH CENTER, priority 2019, published 2022).

The structures appear in SMILES notation.

The test system of one data set is A549 cells. The data set is described as follows: Cell viability by MTT method in A549 cells. The conditions noted are these: 72 hours treatment. More on the design: concentration or dose not given beside the values. The format is cell-based.
A further data set addresses T1, AIMP2-DX2 (Homo sapiens, UniProt Q13155).
T1 sequence (Q13155 1-251 isoform Q13155-2): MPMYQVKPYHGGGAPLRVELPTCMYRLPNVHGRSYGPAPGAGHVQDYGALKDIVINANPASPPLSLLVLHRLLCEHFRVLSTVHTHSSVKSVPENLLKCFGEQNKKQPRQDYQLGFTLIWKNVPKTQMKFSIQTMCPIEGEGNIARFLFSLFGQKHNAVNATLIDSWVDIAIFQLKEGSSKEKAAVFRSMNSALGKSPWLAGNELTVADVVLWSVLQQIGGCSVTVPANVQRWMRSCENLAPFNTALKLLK
The data set is described as follows: DX2-nanoluciferase assay (DX2 expression change) in transfected A549 cells. Particulars: for inhibition at 40 µM / inhibition at 10 µM: A549, 4 h; for inhibition at 40 µM: read-out: DX-Nanoluciferase activity (40 μM), 40 μM, 4 hours treatment, A549 cells transfected with nanoluciferase-DX2; for inhibition at 40 µM / DX-Nanoluciferase activity (40 μM): inhibitory effect on AIMP2-DX2 expression; for DX-Nanoluciferase activity (10 μM) / DX-Nanoluciferase activity (40 μM): 4 hours treatment, A549 cells transfected with nanoluciferase-DX2; for inhibition at 10 µM: read-out: DX-Nanoluciferase activity (10 μM), 10 μM, 4 hours treatment, A549 cells transfected with nanoluciferase-DX2.

Method for AIMP2-DX2: After cloning DX2 into a plasmid expressing nanoluciferase, the plasmid was transfected into A549 cells. Transfected cells were seeded 1×10^4 per well in a 96-well plate and stabilized for 12 hours. […] Cell viability was measured by the MTT method after 72 hours of treatment with each concentration of the compound in A549 cells.

Take `COc1ccc(-c2csc(NC(=O)[C@H](Cc3c[nH]cn3)NS(=O)(=O)c3ccc(Br)cc3)n2)cc1` [Compound 102, (S)-2-(4-Bromophenylsulfonamido)-3-(1H-Imidazol-4-yl)-N-(4-(4-methoxyphenyl)thiazol-2-yl)propanamide]: the “Cell Viability (% inhibition) (A549)” value with A549 cells is 91.03 ± 6.44%. Besides, the inhibition at 40 µM on AIMP2-DX2 stood at 27.2 ± 5.87%.
`CON(C)C(=O)[C@H](CC(C)C)NS(=O)(=O)c1ccc(C)cc1` [Compound 103, (S)—N-methoxy-N,4-dimethyl-2-(4-methylphenylsulfonamido)pentanamide]: the “Cell Viability (% inhibition) (A549)” value in the data set with A549 cells is on record as −5.00 ± 6.69%. In addition, on AIMP2-DX2, the inhibition at 40 µM was determined as 63.7 ± 14.3%.
On the same counts, the results for `CON(C)C(=O)[C@H](Cc1c[nH]c2ccccc12)NS(=O)(=O)c1ccc(C)cc1` [Compound 104, (S)-3-(1H-indol-3-yl)-N-methoxy-N-methyl-2-(4-methylphenylsulfonamido)propanamide] are 6.26 ± 7.67% and 64.3 ± 5.96%.
In the case of `Cc1ccc(S(=O)(=O)N[C@@H](Cc2c[nH]c3ccccc23)C(=O)N2CCOCCOCCOCC2)cc1` [Compound 105, (S)—N-(3-(1H-indol-3-yl)-1-oxo-1-(1,4,7-trioxa-10-azacyclododecan-10-yl)propan-2-yl)-4-methylbenzenesulfonamide], the “Cell Viability (% inhibition) (A549)” value with A549 cells is 29.36 ± 7.43%. The inhibition at 40 µM on AIMP2-DX2 came out at 57.1 ± 1.56%.
Take `CC(C)(C)c1ccc(S(=O)(=O)N[C@@H](Cc2c[nH]c3ccccc23)C(=O)Nc2ccc(N3CCOCC3)cc2)cc1` [Compound 106, (S)-2-(4-tert-Butylphenylsulfonamido)-3-(1H-indol-3-yl)-N-(4-morpholinophenyl)propan amide]: the “Cell Viability (% inhibition) (A549)” value with A549 cells is given as 17.13 ± 5.35%. At AIMP2-DX2, the “DX-Nanoluciferase activity (10 μM)” value was 68.14 ± 9.57 (10 μM).
In the case of `O=C(Nc1nc(-c2ccccc2Cl)cs1)[C@H](Cc1c[nH]c2ccccc12)NS(=O)(=O)c1ccc(Br)cc1` [Compound 107, (S)-2-(4-Bromophenylsulfonamido)-N-(4-(2-chlorophenyl)thiazol-2-yl)-3-(1H-indol-3-yl)propanamide], the “Cell Viability (% inhibition) (A549)” value with A549 cells was 59.19 ± 2.09%. Moreover, the inhibition at 40 µM on AIMP2-DX2 came to 37 ± 12.5%.
For the compound `O=C(Nc1nccs1)[C@H](Cc1c[nH]c2ccccc12)NS(=O)(=O)c1ccc(Br)cc1` [Compound 109, (S)-2-(4-Bromophenylsulfonamido)-3-(1H-indol-3-yl)-N-(thiazol-2-yl)propanamide], the “Cell Viability (% inhibition) (A549)” value with A549 cells stood at 4.14 ± 1.04%. Moreover, the inhibition at 40 µM on AIMP2-DX2 stood at 57.5 ± 9.11%.
On the same counts, the results for `Cc1cnc(NC(=O)[C@H](Cc2c[nH]c3ccccc23)NS(=O)(=O)c2ccc(Br)cc2)s1` [Compound 110, (S)-2-(4-Bromophenylsulfonamido)-3-(1H-indol-3-yl)-N-(5-methylthiazol-2-yl)propanamide] are 8.95 ± 3.66% and 46.7 ± 7.18%.
As for `Cc1ccc(S(=O)(=O)N[C@@H](Cc2c[nH]c3ccccc23)C(=O)Nc2nc(C)cs2)cc1` [Compound 111, (S)-3-(1H-indol-3-yl)-2-(4-methylphenylsulfonamido)-N-(4-methylthiazol-2-yl)propanamide], the “Cell Viability (% inhibition) (A549)” value in the data set with A549 cells is 11.65 ± 6.05%. Besides, the “DX-Nanoluciferase activity (40 μM)” value on AIMP2-DX2 was found to be 25.61 ± 22.32.
For the compound `Cc1ccc(S(=O)(=O)N[C@@H](Cc2c[nH]c3ccccc23)C(=O)Nc2ncc(C)s2)cc1` [Compound 112, (S)-3-(1H-indol-3-yl)-2-(4-methylphenylsulfonamido)-N-(5-methylthiazol-2-yl)propanamide], the “Cell Viability (% inhibition) (A549)” value in the data set with A549 cells is 15.01 ± 6.55%. For the same compound, the inhibition at 40 µM at AIMP2-DX2 came out at 61.5 ± 5.19%.
Take `COC(=O)c1ccc(S(=O)(=O)N[C@@H](Cc2c[nH]c3ccccc23)C(=O)Nc2ccc(N3CCOCC3)cc2)cc1` [Compound 113, (S)-Methyl 4-(N-(3-(1H-indol-3-yl)-1-(4-morpholinophenylamino)-1-oxopropan-2-yl)sulfamoyl)benzoate]: the “Cell Viability (% inhibition) (A549)” value with A549 cells is reported as 4.67 ± 3.85%. In addition, at AIMP2-DX2, the inhibition at 10 µM came to 15.1 ± 6.22%.
Taken in the same sequence, the figures for `CCOC(=O)c1ccc(S(=O)(=O)N[C@@H](Cc2c[nH]c3ccccc23)C(=O)Nc2ccc(N3CCOCC3)cc2)cc1` [Compound 114, (S)-Ethyl 4-(N-(3-(1H-indol-3-yl)-1-(4-morpholinophenylamino)-1-oxopropan-2-yl)sulfamoyl)benzoate] were 47.88 ± 0.53% and 3.48 ± 8.58%.
As for `Cc1ccc(S(=O)(=O)N[C@@H](Cc2ccc(C(=O)c3ccccc3)cc2)C(=O)Nc2ccc(N3CCOCC3)cc2)cc1` [Compound 115, (S)-3-(4-Benzoylphenyl)-2-(4-methylphenylsulfonamido)-N-(4-morpholinophenyl)propanamide], the “Cell Viability (% inhibition) (A549)” value in the data set with A549 cells is recorded as 0.35 ± 0.67%. In addition, the inhibition at 10 µM on AIMP2-DX2 stood at 2.16 ± 6.66%.
With `CNC(=O)c1ccc(S(=O)(=O)N[C@@H](Cc2c[nH]c3ccccc23)C(=O)Nc2ccc(N3CCOCC3)cc2)cc1` [Compound 116, (S)-4-(N-(3-(1H-indol-3-yl)-1-(4-morpholinophenylamino)-1-oxopropan-2-yl)sulfamoyl)-N-methylbenzamide], the “Cell Viability (% inhibition) (A549)” value in the data set on A549 cells is listed as 34.22 ± 7.94%. In addition, the inhibition at 10 µM on AIMP2-DX2 was -0.11 ± 15.1%.
Taken in the same sequence, the figures for `Cc1ccc(S(=O)(=O)N[C@@H](Cc2ccc3ccccc3c2)C(=O)Nc2ccc(N3CCOCC3)cc2)cc1` [Compound 117, (S)-2-(4-Methylphenylsulfonamido)-N-(4-morpholinophenyl)-3-(naphthalen-2-yl)propanamide] were 4.59 ± 6.86% and -2.56 ± 9.56%.
On the same counts, the results for `CC(C)(C)OC(=O)N[C@@H](Cc1c[nH]c2ccccc12)C(=O)Nc1ccc(N2CCOCC2)cc1` [Compound 118, (S)-tert-Butyl 3-(1H-Indol-3-yl)-1-(4-morpholinophenylamino)-1-oxopropan-2-ylcarbamate] are 9.26 ± 7.63% and 8.22 ± 5.02%.
As for `Cc1ccc(S(=O)(=O)N[C@@H](Cc2c[nH]c3ccccc23)C(=O)O)cc1` [Compound 119, (S)-3-(1-Indol-3-yl)-2-(4-methylphenylsulfonamido)propanoic acid], in the data set on A549 cells, the “Cell Viability (% inhibition) (A549)” value is listed as 1.59 ± 8.71%. At AIMP2-DX2, the “DX-Nanoluciferase activity (10 μM)” value is 14.92 ± 10.18.
Regarding `COc1cc(N2CCN(C(=O)OC(C)(C)C)CC2)ccc1NC(=O)[C@H](Cc1c[nH]c2ccccc12)NS(=O)(=O)c1ccc(C)cc1` [Compound 120, (S)-tert-Butyl 4-(4-(3-(1H-indol-3-yl)-2-(4-methylphenylsulfonamido)propanamido)-3-methoxyphenyl)piperazine-1-carboxylate], the “Cell Viability (% inhibition) (A549)” value with A549 cells was 66.51 ± 1.24%. Besides, the inhibition at 10 µM at AIMP2-DX2 is 21.3 ± 14.2%.
Taken in the same sequence, the figures for `COc1cc(N2CCNCC2)ccc1NC(=O)[C@H](Cc1c[nH]c2ccccc12)NS(=O)(=O)c1ccc(C)cc1` [Compound 121, (S)-3-(1H-indol-3-yl)-N-(2-methoxy-4-(piperazin-1-yl)phenyl)-2-(4-methylphenylsulfonamido)propanamide] were 51.15 ± 0.5% and 41.7 ± 17.3%.
On the same counts, the results for `Cc1ccc(S(=O)(=O)N[C@@H](Cc2c[nH]c3ccccc23)C(=O)Nc2ccc(N3CCN(C(=O)OC(C)(C)C)CC3)cc2)cc1` [Compound 122, (S)-tert-Butyl 4-(4-(3-(1H-indol-3-yl)-2-(4-methylphenylsulfonamido)propanamido)phenyl)piperazine-1-carboxylate] are 69.45 ± 1.3% and 38 ± 1.7%.
`COc1cc(N2CCOCC2)ccc1NC(=O)[C@H](Cc1c[nH]c2ccccc12)NS(=O)(=O)c1ccc(C)cc1` [Compound 123, (S)-3-(1H-indol-3-yl)-N-(2-methoxy-4-morpholinophenyl)-2-(4-methylphenylsulfonamido)propanamide]: in the data set with A549 cells, the “Cell Viability (% inhibition) (A549)” value worked out at 34.01 ± 10.45%. Besides, at AIMP2-DX2, the inhibition at 10 µM turned out to be 22.4 ± 11.8%.
On the same counts, the results for `Cc1ccc(S(=O)(=O)N[C@@H](Cc2c[nH]c3ccccc23)C(=O)Nc2ccc(N3CCNCC3)cc2)cc1` [Compound 124, (S)-3-(1H-indol-3-yl)-2-(4-methylphenylsulfonamido)-N-(4-(piperazin-1-yl)phenyl)propanamide] are 16.44 ± 18.56% and 20.9 ± 9.8%.
For the compound `Cc1ccc(S(=O)(=O)N[C@@H](Cc2c[nH]c3ccccc23)C(=O)OCc2ccccc2)cc1` [Compound 127, (S)-Benzyl 3-(1H-indol-3-yl)-2-(4-methylphenylsulfonamido)propanoate], the “Cell Viability (% inhibition) (A549)” value in the data set on A549 cells is listed as 94.24 ± 0.54%. For the same compound, the inhibition at 40 µM on AIMP2-DX2 worked out at 49.9 ± 1.6%.
On the same counts, the results for `Cc1ccc(C(=O)N[C@@H](Cc2c[nH]c3ccccc23)C(=O)OCc2ccccc2)cc1` [Compound 128, (S)-Benzyl 3-(1H-indol-3-yl)-2-(4-methylbenzamido)propanoate] are 63.08 ± 7.72% and 36.8 ± 8.13%.
As for `Cc1ccc(C(=O)N[C@@H](Cc2c[nH]c3ccccc23)C(=O)Nc2ccc(N3CCOCC3)cc2)cc1` [Compound 129, (S)—N-(3-(1 Indol-3-yl)-1-(4-morpholinophenylamino)-1-oxopropan-2-yl)-4-methylbenzamide], the “Cell Viability (% inhibition) (A549)” value with A549 cells is given as 60.35 ± 3.98%. In addition, the “DX-Nanoluciferase activity (40 μM)” value at AIMP2-DX2 is listed as 53.02 ± 9.60.
